Ki, DVS weight increase and GVS mass increase data for seven molecules are collected here from patent publication US20110207770A1, “PHARMACEUTICAL PRODUCT COMPRISING A MUSCARINIC RECEPTOR ANTAGONIST AND A SECOND ACTIVE INGREDIENT” (ASTRAZENECA AB, priority 2008, published 2011).

Each structure is given as a SMILES string. Like-named read-outs stand apart in the source and are kept apart here.

Data set [1] has as its target T1, Recombinant human M3 receptor (Homo sapiens, UniProt P20309).
T1 construct: expressed in transfected cells; host or cells: CHO-K1 cells (membranes prepared from them)
In words: Muscarinic Receptor Radioligand Binding Assay ([3H]-NMS, SPA). As for the experimental part: The inhibitory effects of compounds of the muscarinic antagonists were determined by a Muscarinic Receptor Radioligand Binding Assay.
Recombinant human M3 receptor was expressed in CHO-K1 cells. Cell membranes were prepared and binding of [3H]-N-methyl scopolamine ([3H]-NMS) and compounds was assessed by a scintillation proximity assay (SPA). The incubation time was 16 hours at ambient temperature in the presence of 1% (v/v) DMSO. The assay was performed in white 96 well clear-bottomed NBS plates (Corning). Prior to the assay, the CHO cell membranes containing M3 receptor were coated onto SPA WGA (Wheat germ agglutinin) beads (GE Healthcare). Non specific binding was determined in the presence of 1 μM Atropine.
Radioactivity was measured on a Microbeta scintillation counter (PerkinElmer) using a 3H protocol with a 2 minutes per well read time. […] Concentration dependent inhibition of [3H]-NMS binding by compounds was expressed as pIC50.

A short description of data set [2]: Dynamic vapour sorption (DVS) analysis of crystalline form. It counts as physicochemical. Particulars: at 80% RH, 25° C., crystalline material. As for the experimental part: Dynamic vapour sorption (DVS) analysis was performed on a Surface Measurement systems (SMS) DVS-Intrinsic moisture sorption analyser. The instrument was controlled by SMS Analysis Suite software (DVS-Intrinsic Control v1.0.0.30). Analysis of the data was performed using Microsoft Excel 2007 together DVS Standard Analysis Suite (v6.0.0.7). Sample temperature was maintained at 25° C. and the sample humidity was obtained by mixing streams of wet and dry nitrogen at a total flow rate of 200 mlmin^−1. The relative humidity was measured using a calibrated Rotronic probe (dynamic range 1-100% Relative Humidity (RH)) located close to the sample. The weight change of the sample as a function of % RH was constantly monitored by the microbalance (accuracy ±0.005 mg). Typically a PXRD would be run prior to analysis. 20 mg of sample was then placed in a tared stainless steel mesh basket under ambient conditions. The sample was loaded and unloaded at 40% RH and 25° C. (typical room conditions) and the sample subjected to a graduated DVS regime over 2 cycles using the parameters shown in Table 1.

The nature of data set [3]: Gravimetric Vapour Sorption (GVS) of crystalline forms. It counts as physicochemical. The following applies: at 80% RH, crystalline material. Here is the method: Gravimetric Vapour Sorption (GVS) profiles were measured using a Surface Measurements Systems Dynamic Vapour Sorption DVS-1 or a DVS Advantage instrument. The solid sample ca. 1-5 mg was placed into a glass vessel and the weight of the sample was recorded during a dual cycle step method (40 to 90 to 0 to 90 to 0% relative humidity (RH), in steps of 10% RH).

Setting [4] is: CHO-K1 cell membranes, [3H]-NMS, 16 hours at ambient temperature, 1% DMSO, read-out: Ki in the M3 binding assay.

T1 sequence (P20309 whole entry): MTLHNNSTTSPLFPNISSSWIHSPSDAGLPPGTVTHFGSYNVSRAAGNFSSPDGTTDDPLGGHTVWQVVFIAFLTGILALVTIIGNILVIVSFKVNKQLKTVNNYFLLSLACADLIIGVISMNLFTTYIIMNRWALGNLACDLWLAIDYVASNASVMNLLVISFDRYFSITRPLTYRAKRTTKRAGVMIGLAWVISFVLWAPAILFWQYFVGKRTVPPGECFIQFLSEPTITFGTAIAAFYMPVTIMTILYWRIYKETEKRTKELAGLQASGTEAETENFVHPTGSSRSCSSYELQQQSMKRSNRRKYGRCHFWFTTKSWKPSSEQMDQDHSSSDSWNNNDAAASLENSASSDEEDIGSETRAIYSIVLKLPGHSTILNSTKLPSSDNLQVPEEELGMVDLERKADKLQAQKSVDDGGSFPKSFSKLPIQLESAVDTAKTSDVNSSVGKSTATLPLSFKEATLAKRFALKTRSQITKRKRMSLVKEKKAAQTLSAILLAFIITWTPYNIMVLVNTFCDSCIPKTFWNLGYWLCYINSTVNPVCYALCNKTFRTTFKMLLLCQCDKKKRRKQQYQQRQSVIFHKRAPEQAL

Take `O[C@](c1ccccc1)(c1cc(C[N+]23CCC(CC2)[C@@H](Oc2ccc(F)cc2)C3)on1)C1CCCCC1` [Example 1, (R)-1-[3-((R)-Cyclohexyl-hydroxy-phenyl-methyl)-isoxazol-5-ylmethyl]-3-(4-fluoro-phenoxy)-1-azonia-bicyclo[2.2.2]octane chloride]: in data set [1] (setting [4]), the Ki was determined as 0.8 nM.
With `O=S(=O)([O-])c1ccccc1.O[C@](c1ccccc1)(c1cc(C[N+]23CCC(CC2)[C@@H](Oc2ccc(F)cc2)C3)on1)C1CCCCC1` [Example 2, (R)-1-[3-((R)-Cyclohexyl-hydroxy-phenyl-methyl)-isoxazol-5-ylmethyl]-3-(4-fluoro-phenoxy)-1-azonia-bicyclo[2.2.2]octane benzenesulfonate], in data set [2], the DVS weight increase is given as 0.2 % w/w.
Take `O[C@](c1ccccc1)(c1cc(C[N+]23CCC(CC2)[C@@H](Oc2cccc(F)c2)C3)on1)C1CCCCC1` [Example 3, (R)-1-[3-((R)-Cyclohexyl-hydroxy-phenyl-methyl)-isoxazol-5-ylmethyl]-3-(3-fluoro-phenoxy)-1-azonia-bicyclo[2.2.2]octane chloride]: the Ki in data set [1] was 0.66 nM.
Take `O[C@](c1ccccc1)(c1nnc(C[N+]23CCC(CC2)[C@@H](Oc2ccc(F)cc2)C3)o1)C1CCCCC1` [Example 5, (R)-1-[5-((R)-Cyclohexyl-hydroxy-phenyl-methyl)-[1,3,4]oxadiazol-2-ylmethyl]-3-(4-fluoro-phenoxy)-1-azonia-bicyclo[2.2.2]octane bromide]: the Ki in data set [1] (setting [4]) came out at 0.7 nM.
Still for that read-out and setting: next, `OC(c1ccccc1)(c1ccccc1)c1cc(C[N+]23CCC(CC2)[C@@H](Sc2cccc(F)c2)C3)on1` [Example 6, (R)-3-(3-Fluoro-phenylsulfanyl)-1-[3-(hydroxy-diphenyl-methyl)-isoxazol-5-ylmethyl]-1-azonia-bicyclo[2.2.2]octane bromide]: 0.15 nM; `Cc1ccc(O[C@H]2C[N+]3(Cc4cc(C(O)(c5ccccc5)c5ccccc5)no4)CCC2CC3)cc1F` [Example 7, (R)-3-(3-Fluoro-4-methyl-phenoxy)-1-[3-(hydroxy-diphenyl-methyl)-isoxazol-5-ylmethyl]-1-azonia-bicyclo[2.2.2]octane bromide]: 0.4 nM.
Take `O[C@](c1ccccc1)(c1cc(C[N+]23CCC(CC2)[C@@H](Oc2cccc(F)c2)C3)on1)C1CCCCC1` [Example 8, (R)-1-[3-((R)-Cyclohexyl-hydroxy-phenyl-methyl)-isoxazol-5-ylmethyl]-3-(3-fluoro-phenoxy)-1-azonia-bicyclo[2.2.2]octane 2-hydroxy-ethanesulfonate]: the GVS mass increase in data set [3] is listed as 0.15%.
